We go through 8 compounds from article PMC8869400, “Inhibition Mechanism of Components Isolated from Morus alba Branches on Diabetes and Diabetic Complications via Experimental and Molecular Docking Analyses” (Antioxidants, 2022).

Structures are written as SMILES. ≈ marks a conversion by molar mass, not a printed value. Read-outs that look alike come from different tables or passages of the source.

For test [1], the target named is T1, PTP1B (Homo sapiens, UniProt P18031).
T1 construct: purchased Enzo Life Sciences
T1 sequence (P18031 1-435): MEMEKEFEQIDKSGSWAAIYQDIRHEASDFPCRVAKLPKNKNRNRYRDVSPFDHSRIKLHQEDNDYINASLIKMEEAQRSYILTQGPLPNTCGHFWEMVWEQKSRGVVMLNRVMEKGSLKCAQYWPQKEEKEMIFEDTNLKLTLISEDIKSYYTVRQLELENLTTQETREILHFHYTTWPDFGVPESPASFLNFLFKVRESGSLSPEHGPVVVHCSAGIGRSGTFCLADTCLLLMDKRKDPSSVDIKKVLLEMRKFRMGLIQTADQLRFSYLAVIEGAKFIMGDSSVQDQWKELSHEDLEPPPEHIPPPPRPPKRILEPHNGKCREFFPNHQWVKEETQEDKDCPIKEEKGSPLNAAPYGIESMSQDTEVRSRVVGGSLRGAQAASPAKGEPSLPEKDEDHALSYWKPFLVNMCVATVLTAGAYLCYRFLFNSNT
The test is described as follows: In vitro assay for PTP1B inhibitory activity (pNPP). Format: biochemical.

The next test deals with AGE formation. The test is described as follows: In vitro assay for inhibition of AGE formation (BSA-fructose/glucose fluorescence). Format: biochemical. The note with it: for IC50: read-out: AGEs IC50. As for the experimental part: The inhibition of AGE formation was evaluated using a modification of a previously published method. To prepare the reaction solution, 10 mg/mL of bovine serum albumin was added to 0.2 M fructose, 0.2 M glucose, and […] sodium azide. The reaction solution was mixed with various concentrations of the samples dissolved in 10% DMSO until the total volume was 1 mL. After an 8-day incubation at 37 °C, the fluorescence intensity of the reaction products was measured using a VERSA MAX GEMINI XPS fluorescence microplate reader (Molecular Devices) with excitation and emission wavelengths of 350 nm and 450 nm, respectively. After obtaining the results, we determined the IC50 values as the result on day 4. Aminoguanidine hydrochloride was used as the positive control.

Test [2] in a line: In vitro assay for peroxynitrite scavenging activity (DHR 123). Particulars: mean ± SD of triplicate experiments; for IC50: read-out: ONOO− IC50. The protocol:
The ONOO^− scavenging activity assay was conducted using a previously published method that involved measuring highly fluorescent rhodamine 123, which is rapidly converted from non-fluorescent DHR 123 in the presence of ONOO^−. Briefly, the rhodamine buffer (pH 7.4) was composed of 100 μM DTPA and 5 μM DHR 123. The assay buffer was prepared prior to use and placed on ice. The fluorescence intensity of the oxidized DHR 123 in the background and sample was measured 30 s after treatment with (and without) 200 μM authentic ONOO^−. The fluorescence intensity of the oxidized DHR 123 was measured using a VERSA MAX GEMINI XPS fluorescence microplate reader (Molecular Devices., CA, USA) at excitation and emission wavelengths of 485 and 530 nm, respectively. L-Penicillamine was used as the positive control.

The target in a further test is T2, α-glucosidase (Saccharomyces cerevisiae, UniProt P53341).
T2 construct: purchased Sigma-Aldrich Chemical Company
T2 sequence (P53341 whole entry): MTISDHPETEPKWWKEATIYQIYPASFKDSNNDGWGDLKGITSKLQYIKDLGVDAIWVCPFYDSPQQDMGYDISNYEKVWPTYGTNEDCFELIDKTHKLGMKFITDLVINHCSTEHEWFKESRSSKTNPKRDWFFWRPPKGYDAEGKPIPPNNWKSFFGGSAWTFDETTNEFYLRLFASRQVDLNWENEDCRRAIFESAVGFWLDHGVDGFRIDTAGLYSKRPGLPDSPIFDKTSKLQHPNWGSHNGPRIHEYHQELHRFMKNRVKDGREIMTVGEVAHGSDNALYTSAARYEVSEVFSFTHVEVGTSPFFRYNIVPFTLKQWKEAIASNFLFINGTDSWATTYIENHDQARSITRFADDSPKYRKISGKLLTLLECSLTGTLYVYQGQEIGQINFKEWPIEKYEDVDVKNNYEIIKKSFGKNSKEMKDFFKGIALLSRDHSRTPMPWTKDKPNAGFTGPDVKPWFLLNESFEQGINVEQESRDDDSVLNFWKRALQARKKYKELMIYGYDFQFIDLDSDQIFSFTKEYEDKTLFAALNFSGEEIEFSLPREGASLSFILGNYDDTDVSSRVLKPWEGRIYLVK
The test is described as follows: Kinetic study for α-glucosidase inhibition (Lineweaver–Burk and Dixon plots). Type of test: biochemical. The note with it: for α-Glucosidase Inhibition Mode: determined using Lineweaver–Burk plots.

The target in test [3] is T1, PTP1B. Particulars: at 20 μg/mL; ref 43 (Zhao et al.); cited from earlier work.
Test [4] has as its target T1, PTP1B. Kind of test: Kinetic study for PTP1B inhibition (Lineweaver–Burk and Dixon plots). Format: biochemical. The note with it: for PTP1B Inhibition Mode: determined using Lineweaver–Burk plots.
The mark [5] stands for this setting: mean ± SD of triplicate experiments, read-out: PTP1B IC50.
Where [6] appears, read: mean ± SD of triplicate experiments, result on day 4.
The mark [7] stands for this setting: determined using Dixon plots, read-out: α-Glucosidase Ki.
Where [8] appears, read: determined using Dixon plots, read-out: PTP1B Ki.

In the case of `O=c1cc(-c2ccc(O)cc2O)oc2cc(O)cc(O)c12` [Norartocarpetin (6), Norartocarpetin], the PTP1B-inhibitory activity entry on PTP1B [1] (at 100 μg/mL) is “no PTP1B-inhibitory activity”. Moreover, the IC50 (in general, the point on the concentration scale where inhibition reaches its midpoint) was more than 349 µM on PTP1B [1] (mean ± SD of triplicate experiments, read-out: IC50 Values PTP1B); more than 100 µM at PTP1B [1] (setting [5]); 77.3 ± 9.58 µM in the test with AGE formation (setting [6]); 3.01 ± 0.15 µM in test [2]. Moreover, on α-glucosidase (setting [7]), the Ki – broadly, the dissociation constant of the complex between target and ligand, obtained from inhibition or displacement – turned out to be 19.9 µM. For the same compound, the “α-Glucosidase Inhibition Mode” value on α-glucosidase is recorded as “Mixed”. For the same compound, on PTP1B [3], the PTP1B inhibition was 20%.

Consider `Cl.N=C(N)NN` [Aminoguanidine, Aminoguanidine hydrochloride, reference compound], for which, in the test on AGE formation (setting [6]), the “IC50 Values AGEs” value turned out to be 52.62 ± 6.70 µg/mL and the half-maximal inhibitory concentration (IC50) came to 890 ± 70.2 µM.

As for `CC(C)(S)[C@H](N)C(=O)O` [L-Penicillamine, reference compound], in test [2], the “IC50 Values ONOO−” value came to 1.37 ± 0.19 µg/mL (≈ 9.18 µM) and the IC50 stood at 6.69 ± 0.52 µM.

In the case of `CC(C)=CCc1c(-c2ccc(O)cc2O)oc2c(CC=C(C)C)c(O)cc(O)c2c1=O` [Kuwanon C (1), Kuwanon C], the IC50 is 41.4 ± 1.64 µM at PTP1B [1] (setting [5]), more than 100 µM with AGE formation (setting [6]) and 12.9 ± 0.68 µM in test [2]. In addition, in the test with AGE formation (at 100 μg/mL), the “inhibitory activity on AGE formation” value is given as “no inhibitory activity on AGE formation”. The Ki at α-glucosidase (setting [7]) is 6.85 µM; at PTP1B [4] (setting [8]), 39.4 µM. Moreover, at α-glucosidase, the “α-Glucosidase Inhibition Mode” value is given as “Mixed”. In addition, the “PTP1B Inhibition Mode” value on PTP1B [4] is “Non-competitive”. Besides, on PTP1B [3], the PTP1B inhibition was 58%.

With `Oc1cc(O)cc(/C=C/c2ccc(O)cc2O)c1` [Oxyresveratrol (5), Oxyresveratrol], the IC50 turned out to be 2.85 ± 0.3 µM at PTP1B [1] (PTP1B IC50, mean ± SD of triplicate experiments); 7.56 ± 0.15 µM with AGE formation (setting [6]); 2.37 ± 0.21 µM in test [2]. For the same compound, the Ki is 1.14 µM at α-glucosidase and 2.16 µM at PTP1B [4]. Moreover, the “α-Glucosidase Inhibition Mode” value on α-glucosidase was “Mixed”.

For the compound `CC(C)=CCc1c(-c2ccc(O)cc2O)oc2c(C3C=C(C)CC(c4ccc(O)cc4O)C3C(=O)c3ccc(O)cc3O)c(O)cc(O)c2c1=O` (stereo not drawn) [Kuwanon G (7), Kuwanon G], the IC50 on PTP1B [1] (setting [5]) is 16.2 ± 0.29 µM; in the test with AGE formation (setting [6]), 69.1 ± 1.49 µM; in test [2] it was 6.35 ± 0.36 µM. The Ki at α-glucosidase is 2.03 µM; at PTP1B [4] (setting [8]) it was 12.4 µM. The “α-Glucosidase Inhibition Mode” value on α-glucosidase is recorded as “Mixed”. For the same compound, the results for the “PTP1B Inhibition Mode” value on PTP1B [4] and on PTP1B [4] (listed as kuwanon G (7)) were “Mixed” and “mixed-type”, respectively.

With `Oc1cc(O)cc(-c2cc3ccc(O)cc3o2)c1` [Moracin M (2), Moracin M], the IC50 at PTP1B [1] (setting [5]) turned out to be 333 ± 20.5 µM; in the test on AGE formation (setting [6]), 2.1 ± 0.22 µM; in test [2], 1.08 ± 0.04 µM. The Ki on α-glucosidase (setting [7]) worked out at 3.32 µM. In addition, the “α-Glucosidase Inhibition Mode” value on α-glucosidase is recorded as “Mixed”.

Regarding `O=C1c2c(O)cc(O)cc2O[C@H](c2ccc(O)cc2O)[C@H]1O` [Dihydromorin (3), Dihydromorin], the values for the IC50 (at PTP1B [1] (setting [5]); with AGE formation (setting [6]); in test [2]) were 180 µM, 118 ± 7.89 µM and 2.26 ± 0.12 µM, respectively. In addition, the Ki at α-glucosidase (setting [7]) is 10.2 µM. The “α-Glucosidase Inhibition Mode” value on α-glucosidase was “Mixed”.
